Experimental data taken from ChEMBL document CHEMBL1201862, “PubChem BioAssay data set” (2004).
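The compound was tested at five concentrations on cells cultured in 96-well plates, with a 48-hour exposure period. GI50 = concentration required for 50% inhibition of growth.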 Calls of active or inactive are those of the source. Rule as the data show it: active = GI50 up to about 1.1 µM and inactive = higher. *1 amine or outer side, *2 acyl side, *3 side chain or, on linkers, in order; H or OH if unused. Where a SMILES comes first, the peptide text is derived from it. Bridges are numbered along the chain shown (N, C = ends). [ ]: non-standard residue; d: D form. ξ: configuration not given here. X10 = CCC(C)C(N[*:1])C(O)CC(=O)O[C@H](C(=O)C(C)C(=O)[*:2])C(C)C; NMeY = CN[C@@H](Cc1ccc(O)cc1)C(=O)O; ξNMeL = CNC(CC(C)C)C(=O)O; ξT = CC(O)C(N)C(=O)O

Legend:
Assay in all cases: NCI-60 cell line screen, 48 h
RXF 393 = tested on: RXF 393
SNB-19 = tested on: SNB-19
HCC 2998 = tested on: HCC 2998
OVCAR-8 = tested on: OVCAR-8
TK-10 = tested on: TK-10
NCI-H522 = tested on: NCI-H522
CAKI-1 = tested on: CAKI-1
OVCAR-3 = tested on: OVCAR-3
SN12C = tested on: SN12C
U-251 = tested on: U-251
A498 = tested on: A498
SK-MEL-28 = tested on: SK-MEL-28
SR = tested on: SR
SK-MEL-2 = tested on: SK-MEL-2
NCI-H460 = tested on: NCI-H460
HCT-116 = tested on: HCT-116
BT-549 = tested on: BT-549
HOP-62 = tested on: HOP-62
HCT-15 = tested on: HCT-15

Structure (SMILES) | GI50 (RXF 393) | GI50 (SNB-19) | GI50 (HCC 2998) | GI50 (OVCAR-8) | GI50 (TK-10) | GI50 (NCI-H522) | GI50 (CAKI-1) | GI50 (OVCAR-3) | GI50 (SN12C) | GI50 (U-251) | GI50 (A498) | GI50 (SK-MEL-28) | GI50 (SR) | GI50 (SK-MEL-2) | GI50 (NCI-H460) | GI50 (HCT-116) | GI50 (BT-549) | GI50 (HOP-62) | GI50 (HCT-15) [µM]
O=C(CCC(=O)c1ccc(Cl)cc1)NO | > 100 µM (inactive) | > 100 µM (inactive) | > 100 µM (inactive) | > 100 µM (inactive) | > 100 µM (inactive) | > 100 µM (inactive) | > 100 µM (inactive) | > 100 µM (inactive) | > 100 µM (inactive) | > 100 µM (inactive) | > 100 µM (inactive) | > 100 µM (inactive) | > 100 µM (inactive) | > 100 µM (inactive) | > 100 µM (inactive) | > 100 µM (inactive) | > 100 µM (inactive) | > 100 µM (inactive) | > 100
COc1cc2c(/C=C3/C(=O)Nc4ccccc43)c(Cl)[nH]c2cc1C | 0.311 µM (active) | 0.0486 µM (active) | 0.0861 µM (active) | 0.0869 µM (active) | 0.173 µM (active) | 0.0446 µM (active) | 0.0689 µM (active) | 0.0434 µM (active) | 0.0845 µM (active) | 0.041 µM (active) | 0.0632 µM (active) | 9.12 µM (inactive) | 0.0414 µM (active) | 0.082 µM (active) | 0.0716 µM (active) | 0.0597 µM (active) | 0.0603 µM (active) | 0.107 µM (active) | 0.0408
CCSSCS(C)(=O)=O | 22.1 µM (inactive) | 42.7 µM (inactive) | 18.9 µM (inactive) | 21.6 µM (inactive) | 36.3 µM (inactive) | 18.9 µM (inactive) | 34.8 µM (inactive) | 26.5 µM (inactive) | 24.8 µM (inactive) | 36.4 µM (inactive) | 32.3 µM (inactive) | 58.5 µM (inactive) | 12.9 µM (inactive) | 39.1 µM (inactive) | 33.5 µM (inactive) | 23.6 µM (inactive) | 32.1 µM (inactive) | 39.3 µM (inactive) | 8.02
COc1cccc(C(=O)N[C@@H]2[C@H](O)[C@@H](CO)O[C@H]2n2cnc3c(N)ncnc32)c1 | > 100 µM (inactive) | > 100 µM (inactive) | > 100 µM (inactive) | > 100 µM (inactive) | > 100 µM (inactive) | > 100 µM (inactive) | > 100 µM (inactive) | > 100 µM (inactive) | > 100 µM (inactive) | > 100 µM (inactive) | > 100 µM (inactive) | > 100 µM (inactive) | > 100 µM (inactive) | > 100 µM (inactive) | > 100 µM (inactive) | > 100 µM (inactive) | > 100 µM (inactive) | > 100 µM (inactive) | > 100
CCOC(=O)c1c2c(n(-c3ccc(C)cc3)c1C)-c1ccccc1C(=O)C2(C(=O)OCC)C(=O)OCC | 26.5 µM (inactive) | > 92.7 µM (inactive) | 31.4 µM (inactive) | 29.2 µM (inactive) | 59.2 µM (inactive) | 25.1 µM (inactive) | 39.9 µM (inactive) | 25.3 µM (inactive) | 34.4 µM (inactive) | 70.1 µM (inactive) | 46.6 µM (inactive) | 27.3 µM (inactive) | 1.31 µM (inactive) | 36.3 µM (inactive) | 35.5 µM (inactive) | 31.4 µM (inactive) | 24.8 µM (inactive) | 78.7 µM (inactive) | 36.1
CCC(C)C1NC(=O)C(NC(=O)C(CC(C)C)N(C)C(=O)[C@@H]2CCCN2)C(C)OC(=O)[C@H](Cc2ccc(OC)cc2)N(C)C(=O)[C@@H]2CCCN2C(=O)[C@H](CC(C)C)NC(=O)C(C)C(=O)[C@H](C(C)C)OC(=O)CC1O (stereo not given in full) (H-P[ξNMeL][ξT][X10]LP[NMeY](Me); ester 3-C) | < 0.01 µM (active) | 0.000721 µM (active) | 0.000438 µM (active) | 0.00221 µM (active) | 0.00355 µM (active) | 0.000366 µM (active) | 0.00869 µM (active) | 0.00136 µM (active) | 0.000411 µM (active) | < 0.0001 µM (active) | 0.00411 µM (active) | 0.00014 µM (active) | 0.000317 µM (active) | < 0.01 µM (active) | 0.000249 µM (active) | < 0.0001 µM (active) | 0.00156 µM (active) | 0.00126 µM (active) | 0.016
Cc1ccsc1C(=S)Nc1ccc(Cl)c(/C=N/OC(C)C)c1 | 20.5 µM (inactive) | 44.5 µM (inactive) | 22.9 µM (inactive) | 44.3 µM (inactive) | 65.3 µM (inactive) | 28.3 µM (inactive) | 46.3 µM (inactive) | 44.8 µM (inactive) | 32.5 µM (inactive) | 36.6 µM (inactive) | 64 µM (inactive) | 67.8 µM (inactive) | 16.3 µM (inactive) | 55.1 µM (inactive) | 32.7 µM (inactive) | 27.4 µM (inactive) | 67.9 µM (inactive) | 64.9 µM (inactive) | 15.5
CSC1=C(C)C(/C=N/Nc2ccc([N+](=O)[O-])cc2)=C(C)N(c2ccccc2)S1(=O)=O | > 100 µM (inactive) | > 100 µM (inactive) | 25.8 µM (inactive) | 17.3 µM (inactive) | > 100 µM (inactive) | 12.9 µM (inactive) | > 100 µM (inactive) | 25.4 µM (inactive) | > 100 µM (inactive) | > 100 µM (inactive) | > 100 µM (inactive) | > 100 µM (inactive) | 17.8 µM (inactive) | > 100 µM (inactive) | 16.6 µM (inactive) | 6.47 µM (inactive) | 20.8 µM (inactive) | > 100 µM (inactive) | 68.9
CC1=NN(C(=O)CC(=O)Nc2ccccc2C)C(=O)C1/N=N/c1ccc(C(=O)O)cc1 (stereo not given) | > 100 µM (inactive) | > 100 µM (inactive) | > 100 µM (inactive) | > 100 µM (inactive) | > 100 µM (inactive) | > 100 µM (inactive) | > 100 µM (inactive) | > 100 µM (inactive) | > 100 µM (inactive) | > 100 µM (inactive) | > 100 µM (inactive) | > 100 µM (inactive) | 43.4 µM (inactive) | > 100 µM (inactive) | > 100 µM (inactive) | > 100 µM (inactive) | > 100 µM (inactive) | > 100 µM (inactive) | > 100
CN(C)c1c(C2OC(CO)C(O)C2O)c(=O)c1=O (stereo not given) | > 100 µM (inactive) | > 100 µM (inactive) | > 100 µM (inactive) | > 100 µM (inactive) | > 100 µM (inactive) | > 100 µM (inactive) | > 100 µM (inactive) | > 100 µM (inactive) | > 100 µM (inactive) | > 100 µM (inactive) | > 100 µM (inactive) | > 100 µM (inactive) | > 100 µM (inactive) | > 100 µM (inactive) | > 100 µM (inactive) | > 100 µM (inactive) | > 100 µM (inactive) | > 100 µM (inactive) | > 100
COc1ccc2c(cnc3c4cc(OC)c(OC)cc4ccc23)c1 | > 100 µM (inactive) | > 100 µM (inactive) | > 100 µM (inactive) | > 100 µM (inactive) | > 100 µM (inactive) | > 100 µM (inactive) | > 100 µM (inactive) | > 100 µM (inactive) | > 100 µM (inactive) | > 100 µM (inactive) | > 100 µM (inactive) | > 100 µM (inactive) | > 100 µM (inactive) | > 100 µM (inactive) | > 100 µM (inactive) | > 100 µM (inactive) | > 100 µM (inactive) | > 100 µM (inactive) | > 100
O=C1C=CC(=O)N1n1c(Cc2ccccc2)n[nH]c1=O | > 100 µM (inactive) | > 100 µM (inactive) | > 100 µM (inactive) | > 100 µM (inactive) | > 100 µM (inactive) | > 100 µM (inactive) | > 100 µM (inactive) | > 100 µM (inactive) | > 100 µM (inactive) | > 100 µM (inactive) | > 100 µM (inactive) | > 100 µM (inactive) | > 100 µM (inactive) | > 100 µM (inactive) | > 100 µM (inactive) | > 100 µM (inactive) | > 100 µM (inactive) | > 100 µM (inactive) | > 100
COc1ccc2nc3ccc(OC)cc3c([S+]([O-])CCCl)c2c1 (stereo not given) | 3.59 µM (inactive) | 22.5 µM (inactive) | 23.2 µM (inactive) | 2.67 µM (inactive) | 3.81 µM (inactive) | 1.67 µM (inactive) | 2.62 µM (inactive) | 2.2 µM (inactive) | 1.94 µM (inactive) | 14.5 µM (inactive) | 16.8 µM (inactive) | 3.73 µM (inactive) | 2.67 µM (inactive) | 17.7 µM (inactive) | 26.4 µM (inactive) | 1.83 µM (inactive) | 15.1 µM (inactive) | 18.1 µM (inactive) | 2.65
COc1cc(Oc2nc3c(N)cc(C(F)(F)F)cc3nc2-c2ccccc2)cc(OC)c1OC | 5.71 µM (inactive) | 3.17 µM (inactive) | 5.36 µM (inactive) | 4.91 µM (inactive) | 26.1 µM (inactive) | 2.08 µM (inactive) | 3.98 µM (inactive) | 1.3 µM (inactive) | 8.07 µM (inactive) | 5.9 µM (inactive) | 7.89 µM (inactive) | 14.8 µM (inactive) | 0.624 µM (active) | 3.24 µM (inactive) | 4.14 µM (inactive) | 2.34 µM (inactive) | 4.03 µM (inactive) | 3.29 µM (inactive) | 3.53
CC1=NN(c2cccc(Cl)c2)C2(C1)SCC(=O)N2c1nc2ccccc2s1 (stereo not given) | 17.7 µM (inactive) | 36 µM (inactive) | 17.9 µM (inactive) | 35.6 µM (inactive) | 30.2 µM (inactive) | 25.9 µM (inactive) | 32.6 µM (inactive) | 16.2 µM (inactive) | 22.1 µM (inactive) | 27 µM (inactive) | 27.9 µM (inactive) | 32.8 µM (inactive) | 17.9 µM (inactive) | 22.3 µM (inactive) | 21.6 µM (inactive) | 17.9 µM (inactive) | 29.3 µM (inactive) | 19.4 µM (inactive) | 33.2
